Structures can show the parent of a compound that is named as a salt.
Test: Photostability under irradiation with 250 watt sun lamp
Type: physicochemical
Details: sun lamp, in M-1cm-1 (unit assumed)
Procedure: In addition, experiments were conducted in order to determine the photostability of the product of Example I. A solution was prepared by mixing 0.1 g of the product with 50 ml of dichloromethane solvent. The solution was placed in a 100 ml round bottom flask and irradiated with light from a sun lamp (250 watts at a distance of approximately 8 inches from the flask). […] However, another solution was made by combining 0.1 g of product in 250 ml of CH3 OH and 10 ml of CH2 Cl2. Addition of the CH2 Cl2 was undertaken to obtain complete dissolution. The solution was placed in a […] and irradiated as described above. […] Thus, the use of different solvents will cause a variation in both the character and duration of fluorescence.
In addition, a further test was conducted in order to determine the photostability of the product. Specifically, 2.0 mg of the product in a 100 ml round bottom flask was dissolved in 50 ml of H2 O. The solution was then irradiated by light from a 250 watt sun lamp placed approximately 8 inches from the flask. UV spectral data was recorded periodically as shown below in Table III.

ε492 (H2O) (2.0 mg in 50 ml H2O, 0 hours): 76,995.38
ε492 (H2O) (H2O, 0.5 hours): 76,755.22
ε492 (H2O) (H2O, 1.0 hours): 75,556.52
ε492 (H2O) (H2O, 1.5 hours): 76,755.52
ε492 (H2O) (H2O, 2.5 hours): 75,316.35
ε492 (H2O) (H2O, 3.5 hours): 73,757.26
ε492 (H2O) (H2O, 6.0 hours): 69,799.55
ε492 (H2O) (H2O, 20.0 hours): 52,049.62
ε492 (H2O) (H2O, 21.5 hours): 51,569.90
ε492 (H2O) (H2O, 23.5 hours): 46,173.05
ε492 (H2O) (H2O, 25.5 hours): 45,573.40
ε492 (H2O) (H2O, 28.0 hours): 41,016.06
ε492 (H2O) (H2O, 30.5 hours): 37,178.46
ε492 (H2O) (H2O, 44.0 hours): 20,388.19
ε492 (H2O) (H2O, 50.0 hours): 13,192.355
ε492 (H2O) (H2O, 52.5 hours): 599.653
SMILES: CC1=C(S(=O)(=O)O)C(C)=[N+]2C1=C(C)c1c(C)c(S(=O)(=O)O)c(C)n1[B-]2(F)F [PMPDS-BF2, Disodium salt of 4,4-difluoro-1,3,5,7,8-pentamethyl-4-bora-3a,4a-diaza-s-indacene-2,6-disulfonic acid monohydrate]

Source: patent US5446157A, “Boron difluoride compounds useful in photodynamic therapy and production of laser light” (priority 1993, dated 1995)
